According to patent US8188069B2, “Azepine derivatives as gamma-secretase inhibitors” (Eli Lilly and Company, priority 2007, dated 2012):

Legend:
[1] = system: β-amyloid peptide production in 293 751 SWE cells (HEK293 transfected with APP751 Swedish mutation); assay: In vitro inhibition of β-amyloid production (ELISA, 293 751 SWE cells); assay type: cell-based, human; details: two hour incubation, n = 3
Experimental: This screening assay employed cells (HEK293=human kidney cell line) which were stably transfected with the gene for amyloid precursor protein 751 (APP751) containing the double mutation Lys651Met652 to Asn651Leu652 (APP751 numbering) in the manner described in International Patent Application Publication No. 94/10569. This mutation is commonly called the Swedish mutation and the cells, designated as “293 751 SWE”, were plated in Corning 96-well plates at 2-4×10^4 cells per well in Dulbecco's minimal essential media (Sigma, St. Louis, Mo.) plus 10% fetal bovine serum. Cell number is important in order to achieve β-amyloid ELISA results within the linear range of the assay (˜0.03 to 1.0 ng per mL).
Following overnight incubation at 37° C. in an incubator equilibrated with 5% carbon dioxide, media are removed and replaced with a stock solution of test compound (200 μL per well) for a two hour incubation period.
At the end of the incubation period, 100 μL from each well, of conditioned media or appropriate dilutions thereof are transferred into an ELISA plate pre-coated with antibody 266 [P. Seubert, Nature (1992) 359:325-327] against amino acids 13-28 of β-amyloid peptide as described in International Patent Application Publication No. 94/10569 and stored at 4° C. overnight. An ELISA assay employing labeled antibody 3D6 [P. Seubert, Nature (1992) 359:325-327] against amino acids 1-5 of β-amyloid peptide is run the next day to measure the amount of β-amyloid peptide produced. The results of the β-amyloid peptide ELISA are fit to a standard curve and expressed as ng/mL β-amyloid peptide and the concentration of test compounds producing 50% inhibition (IC50) of β-amyloid peptide production are estimated using a four parameter logistic model within Graph Pad Prism (San Diego, Calif.).

plasma A-beta = assay: In vivo suppression of β-amyloid, blood assay (plasma total β-amyloid ELISA); design: species or system PDAPP mice; details: 3 mg/kg b.i.d. for 7 days; p<0.001 relative to vehicle control
Experimental: (§1) This example illustrates how the compounds of this invention could be tested for in vivo suppression of β-amyloid release and/or synthesis. For these experiments, 3 to 4 month old PDAPP mice are used [Games et al., (1995) Nature 373:523-527]. Depending upon which compound is being tested, the compound is usually formulated at between 1 and 10 mg/mL. Because of the low solubility factors of the compounds, they may be formulated with various vehicles, such as corn oil; 10% ethanol in corn oil; 2-hydroxypropyl-β-cyclodextrin (Research Biochemicals International, Natick, Mass.); and carboxy-methyl-cellulose (Sigma Chemical Co., St. Louis, Mo.).
For acute efficacy studies, PDAPP mice are dosed orally by gavage and 3 hours later the animals are euthanized via CO2 narcosis. For sub-chronic studies, PDAPP mice are dosed once-a-day or twice-a-day for 7 days, and sacrificed 3 hours after the last dose. […]
The Total β-amyloid 1-x sandwich ELISA, quantitating essentially all species of β-amyloid (including β-amyloid 1-40 and β-amyloid 1-42), employs two monoclonal antibodies (mAb) to β-amyloid. […]
The 266 and 21F12 capture mAbs are coated at 10 μg into 96-well immunoassay plates (Costar, Cambridge, Mass.) overnight at room temperature. […] Reaction product is quantified using a Molecular Devices Vmax (Molecular Devices, Menlo Park, Calif.) measuring the difference in absorbance at 450 nm and 650 nm. […]

Hippocampal Total A-beta = assay: In vivo suppression of β-amyloid, brain assay (hippocampal total A-beta ELISA); details: young heterozygous PDAPP mice, sacrifice 3 hours post-administration
Experimental: as §1
For acute efficacy studies, PDAPP mice are dosed orally by gavage and 3 hours later the animals are euthanized via CO2 narcosis. For sub-chronic studies, PDAPP mice are dosed once-a-day or twice-a-day for 7 days, and sacrificed 3 hours after the last dose. Blood is taken by cardiac puncture using a 1 cc 25G ⅝″ tuberculin syringe/needle coated with solution of 0.5 M EDTA, pH 8.0. The blood is placed in a Becton-Dickinson vacutainer tube containing EDTA and spun down for 15 minutes at 1500×g at 5° C. The brains of the mice are then removed and the cortex and hippocampus are dissected out, placed in labeled eppendorf tubes and rapidly frozen on dry ice.
To prepare hippocampal and cortical tissue for enzyme-linked immunosorbent assays (ELISAs) each brain region is homogenized in 10 volumes of ice cold guanidine buffer (5.0 M guanidine-HCl, 50 mM Tris-HCl, pH 8.0) using a Polytron. The homogenates are gently rocked on a rotating platform for three to four hours at room temperature and stored at −20° C. prior to quantitation of β-amyloid.
The brain homogenates are diluted 1:10 with ice-cold casein buffer [0.25% casein, phosphate buffered saline (PBS), 0.05% sodium azide, 20 μg/ml aprotinin, 5 mM EDTA, pH 8.0, 10 μg/ml leupeptin], thereby reducing the final concentration of guanidine to 0.5 M, before centrifugation at 16,000×g for 20 minutes at 4° C. Samples are further diluted, if necessary, to achieve an optimal range for the ELISA measurements by the addition of casein buffer with 0.5 M guanidine hydrochloride added. The β-amyloid standards (1-40 or 1-42 amino acids) are prepared such that the final composition equaled 0.5 M guanidine in the presence of 0.1% bovine serum albumin (BSA).
The Total β-amyloid 1-x sandwich ELISA, quantitating essentially all species of β-amyloid (including β-amyloid 1-40 and β-amyloid 1-42), employs two monoclonal antibodies (mAb) to β-amyloid. The capture antibody, 266 [P. Seubert, Nature (1992) 359:325-327], is specific to amino acids 13-28 of β-amyloid. The antibody 3D6 [Johnson-Wood et al., PNAS USA (1997) 94:1550-1555], which is specific to amino acids 1-5 of β-amyloid, is biotinylated and served as the reporter antibody in the assay. The 3D6 biotinylation procedure employs the manufacturer's (Pierce, Rockford, Ill.) protocol for NHS-biotin labeling of immunoglobulins except that 100 mM sodium bicarbonate, pH 8.5 buffer is used.
The 266 and 21F12 capture mAbs are coated at 10 μg into 96-well immunoassay plates (Costar, Cambridge, Mass.) overnight at room temperature. The plates are then aspirated and blocked with 0.25% human serum albumin in PBS buffer for at least 1 hour at room temperature, then stored desiccated at 4° C. until use. The plates are rehydrated with wash buffer (Tris-buffered saline, 0.05% Tween 20) prior to use. […]

Question: For `CC(C)C1=CC(NC(=O)[C@H](C)NC(=O)[C@@H](O)C(C)C)C(=O)N(C)C=C1` (single isomer, unassigned) [3 (diastereomer 1)], which IC50 [1] is on record?
Answer: 10700 ± 1800 nM

Question: `CC(C)C1=CC(NC(=O)[C@H](C)NC(=O)[C@@H](O)C(C)C)C(=O)N(C)C=C1` (single isomer, unassigned) [3 (diastereomer 2)] was tested. Which IC50 [1] did it give?
Answer: 36 ± 1 nM

Question: Which IC50 [1] does the source give for `CC(C)[C@H](F)C(=O)N[C@@H](C)C(=O)NC1C=C(c2ccccc2)C=CN(C)C1=O` (single isomer, unassigned) [2 (diastereomer 1)] here?
Answer: 3330 ± 430 nM

Question: For `CC(C)[C@H](F)C(=O)N[C@@H](C)C(=O)NC1C=C(c2ccccc2)C=CN(C)C1=O` (single isomer, unassigned) [2 (diastereomer 2)], which IC50 [1] is on record?
Answer: 8 ± 0.8 nM

Question: What does the source list for `CC(C)[C@H](O)C(=O)N[C@@H](C)C(=O)N[C@H]1C=C(c2ccccc2)C=CN(C)C1=O` (single isomer, unassigned) [1 (diasteromer 2)]?
Answer: reduction of plasma A-beta (plasma A-beta): 54%; IC50 ([1]; Homo sapiens, HEK293, 2 h): 5 ± 0.7 nM; Hippocampal Total A-beta % REDUCTION (Hippocampal Total A-beta; 0.1 mg/kg oral, n = 1 experiment): 18%; Hippocampal Total A-beta % REDUCTION (Hippocampal Total A-beta; 0.3 mg/kg oral, mean ± SD, n = 2 experiments): 31 ± 13%; Hippocampal Total A-beta % REDUCTION (Hippocampal Total A-beta; 1 mg/kg oral, mean ± SD, n = 3 experiments): 48 ± 11%; Hippocampal Total A-beta % REDUCTION (Hippocampal Total A-beta; 3 mg/kg oral, mean ± SD, n = 5 experiments): 59 ± 5%; Hippocampal Total A-beta % REDUCTION (Hippocampal Total A-beta; 10 mg/kg oral, n = 1 experiment): 69%
